Reference: patent US4797489A, “Adamantyl- and fluorenyl-arylpiperazines and -arylpiperidines” (American Home Products Corp., priority 1987, dated 1989)

Columns and labels:
[1] = target: T1, 5-HT1A serotonin receptor (Rattus norvegicus, UniProt P19327); assay: 5-HT1A receptor binding, displacement of ^3 H-8-OH DPAT
T1 construct: 44, 1685-1696 (1985); from tissue
T1 sequence (P19327 1-422): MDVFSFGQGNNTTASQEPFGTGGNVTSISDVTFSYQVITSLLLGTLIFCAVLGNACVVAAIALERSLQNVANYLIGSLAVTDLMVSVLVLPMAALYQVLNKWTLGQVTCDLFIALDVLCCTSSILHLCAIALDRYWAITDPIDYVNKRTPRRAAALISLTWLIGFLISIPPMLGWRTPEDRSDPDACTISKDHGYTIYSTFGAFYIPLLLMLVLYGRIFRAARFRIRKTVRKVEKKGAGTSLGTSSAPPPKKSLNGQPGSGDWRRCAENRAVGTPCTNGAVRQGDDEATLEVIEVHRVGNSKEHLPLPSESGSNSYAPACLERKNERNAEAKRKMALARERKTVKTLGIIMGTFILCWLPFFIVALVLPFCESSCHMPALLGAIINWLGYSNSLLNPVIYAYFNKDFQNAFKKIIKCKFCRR
Description: The serotoninergic properties of the compounds of this invention were established by the procedure of Hall et al., J. Neurochem.

[2] = Barone et al., 1986; cited from earlier work
[3] = target: T2, limbic D2 (dopamine) receptor (Rattus norvegicus, UniProt P61169); assay: D2 receptor affinity, inhibition of ^3 H-spiroperidol (^3 H-spirohaloperidol) binding to limbic brain tissue
T2 construct: from tissue; rat inferred
T2 sequence (P61169 whole entry): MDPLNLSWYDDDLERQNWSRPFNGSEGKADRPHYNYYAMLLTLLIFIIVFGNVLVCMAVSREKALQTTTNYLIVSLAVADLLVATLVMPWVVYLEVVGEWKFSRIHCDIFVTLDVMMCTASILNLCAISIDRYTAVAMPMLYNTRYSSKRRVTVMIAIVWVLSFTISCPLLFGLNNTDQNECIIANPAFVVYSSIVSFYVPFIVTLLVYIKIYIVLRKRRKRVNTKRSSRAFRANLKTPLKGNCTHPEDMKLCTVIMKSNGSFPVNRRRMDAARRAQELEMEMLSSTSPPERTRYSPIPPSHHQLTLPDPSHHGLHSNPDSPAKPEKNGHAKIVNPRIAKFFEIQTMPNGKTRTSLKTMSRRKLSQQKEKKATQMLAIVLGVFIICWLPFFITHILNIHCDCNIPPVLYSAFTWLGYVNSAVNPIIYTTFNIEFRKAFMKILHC

5-HT2 receptor = assay: 5-HT2 inhibition of ^3 H-spiroperidol binding (rat brain cortex homogenate)
Description: 5-HT2 inhibition of ^3 H-spiroperidol is determined in an analogous manner, employing rat brain cortex homogenate as the receptor tissue, following a modification of Fields et al., ibid; Yamamura et al., ibid; and Creese et al., Eu. J. Pharmacol. 49, 20 (1978).

| inhibition at 1 µM ([1]; ^3 H-8-OH DPAT) [%] | inhibition at 1 µM [3] [%] | SMILES | other results |
| --- | --- | --- | --- |
| 53 |  | O=C(OCCN1CCN(c2cccc(Cl)c2)CC1)c1cccc2c1Cc1ccccc1-2 [Example 8, 9H-Fluorene-1-carboxylic acid 2-[4-(3-chlorophenyl)-1-piperazinyl]ethyl ester] |  |
|  |  | Cc1nc2sccn2c(=O)c1CCN1CCC(=C(c2ccc(F)cc2)c2ccc(F)cc2)CC1 [Ritanserin] | clinical efficacy as anxiolytic-antidepressant agents [2]: demonstrated clinical efficacy |
| 100 |  | COc1ccccc1N1CCN(CCOC(=O)c2cccc3c2Cc2ccccc2-3)CC1 [Example 5, 9H-Fluorene-1-carboxylic acid 2-[4-(2-methoxyphenyl)-1-piperazinyl]ethyl ester] |  |
|  | 26 | O=C(OCCN1CCN(c2ncccn2)CC1)C12CC3CC(CC(C3)C1)C2 [Example 2, Tricyclo[3.3.1.1^3,7]decane-1-carboxylic acid 2-[4-(2-pyrimidinyl)-1-piperazinyl]ethyl ester] | Ki ([1]; ^3 H-8-OH DPAT, Ki calculated from IC50 values): 8.5 nM |
| 72 | 39 | CC12CC3CC(C1)CC(CC(=O)OCCN1CCN(c4ncccn4)CC1)(C3)C2 [Example 4, 3-Methyltricyclo[3.3.1.1^3,7]decane-1-acetic acid 2-[4-(2-pyrimidinyl)-1-piperazinyl]ethyl ester] |  |
|  | 90 | N#Cc1ccccc1N1CCN(CCOC(=O)C23CC4CC(CC(C4)C2)C3)CC1 [Example 10, Tricyclo[3.3.1.1^3,7]decane-1-carboxylic acid [2-[4-(2-cyanophenyl)-1-piperazinyl]ethyl]ester] |  |
| 69 | 33 | O=C(OCCCN1CCN(c2ncccn2)CC1)C12CC3CC(CC(C3)C1)C2 [Example 7, Tricyclo[3.3.1.1^3,7]decane-1-carboxylic acid 3-[4-(2-pyrimidinyl)-1-piperazinyl]propyl ester] |  |
| 80 | 67 | O=C(OCCCN1CCN(c2cccc(Cl)c2)CC1)C12CC3CC(CC(C3)C1)C2 [Example 1, Tricyclo[3.3.1.1^3,7]decane-1-carboxylic acid 3-[4-(3-chlorophenyl)-1-piperazinyl]propyl ester] |  |
| 100 | 90 | COc1ccccc1N1CCN(CCCOC(=O)C23CC4CC(CC(C4)C2)C3)CC1 [Example 3, Tricyclo[3.3.1.1^3,7]decane-1-carboxylic acid 3-[4-(2-methoxyphenyl)-1-piperazinyl]propyl ester] |  |
|  |  | O=C1CC2(CCCC2)CC(=O)N1CCCCN1CCN(c2ncccn2)CC1 [Buspirone, reference compound] | inhibition at 0.001 µM ([1]; read-out: percent inhibition (5-HT1A, ^3 H-8-OH DPAT)): 97% |

| SMILES | inhibition at 1 µM ([1]; ^3 H-8-OH DPAT) [%] | inhibition at 1 µM [3] [%] | other results |
| --- | --- | --- | --- |
| CC12CC3CC(C1)CC(CC(=O)OCCN1CCC(=C(c4ccc(F)cc4)c4ccc(F)cc4)CC1)(C3)C2 [Example 12, Tricyclo[3.3.1.1^3,7]decane-3-methyl-1-acetic acid 2-[4-[bis(4-fluorophenyl)methylene]-1-piperidinyl]ethyl ester] |  | 36 | 5HT2 Receptor Binding % Inhibition at 1 μM (5-HT2 receptor): 63% |
| O=C(OCCN1CCC(=C(c2ccc(F)cc2)c2ccc(F)cc2)CC1)C12CC3CC(CC(C3)C1)C2 [Example 11, Tricyclo[3.3.1.1^3,7]decane-1-carboxylic acid 2-[4-[bis(4-fluorophenyl)methylene]-1-piperidinyl]ethyl ester] | 95 | 100 | 5HT2 Receptor Binding % Inhibition at 1 μM (5-HT2 receptor): 98% |
